In experiment [1] the target is T1, human neurokinin 2 (NK2) receptor (Homo sapiens, UniProt P21452).
T1 construct: expressed in transfected cells; host or cells: Chinese hamster ovary (CHO) cells, membranes
T1 sequence (P21452 1-398): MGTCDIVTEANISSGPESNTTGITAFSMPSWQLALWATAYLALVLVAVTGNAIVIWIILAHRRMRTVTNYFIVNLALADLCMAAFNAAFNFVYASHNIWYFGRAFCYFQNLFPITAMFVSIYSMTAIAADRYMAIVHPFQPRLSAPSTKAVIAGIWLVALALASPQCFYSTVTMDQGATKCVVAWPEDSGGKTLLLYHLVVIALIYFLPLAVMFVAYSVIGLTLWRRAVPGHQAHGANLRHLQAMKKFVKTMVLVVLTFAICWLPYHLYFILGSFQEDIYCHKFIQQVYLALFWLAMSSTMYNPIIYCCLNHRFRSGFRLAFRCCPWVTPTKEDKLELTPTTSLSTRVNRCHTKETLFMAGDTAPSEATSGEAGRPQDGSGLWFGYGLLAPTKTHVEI
As to the kind of experiment: Neurokinin receptor binding assay, NK2 ([3H]-Neurokinin A). The conditions noted are these: for inhibition at 1 µM: read-out: % Inhibition NK2 (1 μM dose). The protocol:
(§1) Chinese Hamster ovary (CHO) cells transfected with the coding regions for the human neurokinin 1 (NK1) of the human neurokinin 2 (NK2) receptors are grown in Dulbecco's minimal essential medium supplemented with 10% fetal calf serum, 0.1 mM non-essential amino acids, 2 mM glutamine, 100 units/ml of penicillin and streptomycin, and 0.8 mg of G418/ml at 37° C. in a humidified atmosphere containing 5% CO2.
(§2) Cells are detached from T-175 flasks with a sterile solution containing 5 mM EDTA in phosphate buffered saline. Cells are harvested by centrifugation and washed in RPMI media at […] for 5 minutes. The pellet is resuspended in Tris-HCl (pH7.4) containing 1 μM phsphoramidon and 4 ug/ml of chymostatin at a cell density of 30×10^6 cells/ml. The suspension is then homogenized in a Brinkman Polytron (setting 5) for 30-45 seconds. The homogenate is centrifuged at 800×g for 5 min at 4° C. to collect unbroken cells and nuclei. The supernatant is centrifuged in a Sorvall RC5C at 19,000 rpm ([…]) for 30 min at 4° C. The pellet is resuspended, an aliquot is removed for a protein determination (BCA) and washed again. The resulting pellet is stored at -80° C.
(§3) To assay receptor binding, 50 μl of [^3 H]-Substance P (9-Sar, 11-Met) (specific activity 41 Ci/mmol) (Dupont-NEN) (0.8 nM for the NK-1 assay) or [^3 H]-Neurokinin A (specific activity 114 Ci/mmole) (Zenca) (1.0 nM for the NK-2 assay) is added to tubes containing buffer (50 mM Tris-HCl (pH 7.4) with 1 mM MnCl2 and 0.2% Bovine Serum Albumin) and either DMSO or test compound. Binding is initiated by the addition of 100 μl of membrane (10-20 μg) containing the human NK-1 or NK-2 receptor in a final volume of 200 μl. After 40 minutes at room temperature, the reaction is stopped by rapid filtration onto Whatman GF/C filters which have been presoaked in 0.3% polyethyleneimine. Filters are washed 2 times with 3 ml of 50 mM Tris-HCl (pH7.4). Filters are added to 6 mls of Ready-Safe liquid scintillation cocktail and quantified by liquid scintillation spectrometry in a LKB 1219 RackBeta counter. Non-specific binding is determined by the addition of either 1 μM of CP-99994 (NK-1) or 1 μM SR-48968 (NK-2) (both synthesized by the chemistry department of Schering-Plough Research Institute). IC50 values are determined from competition binding curves and Ki values are determined according to Cheng and Prusoff using the experimentally determined value of 0.8 nM for the NK-1 receptor and 2.4 nM for the NK-2 receptor.
(§4) % Inhibition is the difference between the percent of maximum specific binding (MSB) and 100%. The percent of MSB is defined by the following equation, wherein "dpm" is disintegrations per minute: [formula]

Experiment [2] addresses T2, human neurokinin 1 (NK1) receptor (Homo sapiens, UniProt P25103).
T2 construct: expressed in transfected cells; host or cells: Chinese hamster ovary (CHO) cells, membranes
The experiment is described as follows: Neurokinin receptor binding assay, NK1 ([3H]-Substance P). To be noted: for inhibition at 1 µM: read-out: % Inhibition NK1 (1 μM dose). As for the experimental part:
as §1, §2, §3, §4

Where [3] appears, read: CHO membranes, human NK-2 receptor, [3H]-Neurokinin A 1.0 nM, Cheng-Prusoff, read-out: Ki (NK2).
The mark [4] stands for this setting: CHO membranes, human NK-1 receptor, [3H]-Substance P 0.8 nM, Cheng-Prusoff, read-out: Ki (NK1).

Read-outs that look alike come from different tables or passages of the source.

T2 sequence (P25103 whole entry): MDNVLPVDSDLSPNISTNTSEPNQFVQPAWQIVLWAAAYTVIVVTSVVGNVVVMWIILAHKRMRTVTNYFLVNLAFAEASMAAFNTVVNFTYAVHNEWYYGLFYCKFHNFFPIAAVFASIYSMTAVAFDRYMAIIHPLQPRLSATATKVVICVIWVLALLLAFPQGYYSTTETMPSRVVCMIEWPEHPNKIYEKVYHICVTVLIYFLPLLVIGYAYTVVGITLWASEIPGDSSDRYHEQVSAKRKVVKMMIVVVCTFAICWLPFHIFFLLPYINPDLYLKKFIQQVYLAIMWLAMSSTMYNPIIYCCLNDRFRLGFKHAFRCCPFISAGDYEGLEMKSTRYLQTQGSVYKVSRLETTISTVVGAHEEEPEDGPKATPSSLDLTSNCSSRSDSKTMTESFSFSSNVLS

Turning to `COc1cc(C(=O)N(C)CC(CCN(C)CCc2c[nH]c3ccc(F)cc23)c2ccc(Cl)c(Cl)c2)cc(OC)c1OC` (racemic) [Example 7c], the inhibition at 1 µM in experiment [1] was 100%.

Regarding `COc1cc(C(=O)N(C)CC(CCN[C@@H](Cc2c[nH]c3ccccc23)C(=O)O)c2ccc(Cl)c(Cl)c2)cc(OC)c1OC` (stereo partly shown) [Example 7d], the Ki is 0.03 µM in experiment [1] (setting [3]) and 0.233 µM in experiment [2] (setting [4]).

For `CN(CCc1c[nH]c2ccccc12)CCC1(c2ccc(Cl)c(Cl)c2)CCN(C(=O)c2cc(C(F)(F)F)cc(C(F)(F)F)c2)C1` (stereo not shown) [Example 14b], the values for the Ki in experiment [1] and in experiment [2] were 0.143 µM and 0.021 µM, respectively. Also, the inhibition at 1 µM is 88% in experiment [1] and 81% in experiment [2].

Turning to `Cc1cc(C(=O)N(C)CC(CCN(C)CCc2c[nH]c3ccccc23)c2ccc(Cl)c(Cl)c2)cc(Cl)n1` (stereo not shown) [Example 12c], in experiment [1], the Ki was determined as 0.039 µM and the inhibition at 1 µM was found to be 93%. In experiment [2], the Ki is 0.103 µM and the inhibition at 1 µM was 82%.

As for `COc1cc(C(=O)N(C)CC(CCN(C)CCCc2c[nH]c3ccccc23)c2ccc(Cl)c(Cl)c2)cc(OC)c1OC` (stereo not shown) [Example 7b], the inhibition constant (Ki) in experiment [1] (setting [3]) is 0.217 µM; in experiment [2] (setting [4]), 0.019 µM.

For orientation: inhibition means how much of the control response was suppressed. As a reminder, the Ki is the dissociation constant of the complex between target and ligand, obtained from inhibition or displacement.
